Test results from PubChem BioAssay (NCI).
Values joined by “and” are separate entries in the source; they are usually repeats but may differ in a detail not shown here. Equal entries are not always repeated.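 These data come from cells grown in 96-well plates and exposed to compound for 48 hours at five concentrations. GI50 is the concentration that inhibits growth by half. TGI: concentration producing complete growth inhibition.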

Experiments:
Test in all cases: DTP human tumour cell line panel, 48 h
[1] = system: MDA-MB-468 breast
[2] = system: UACC-62 melanoma
[3] = system: ACHN renal
[4] = system: HOP-92 NSCLC
[5] = system: SNB-19 CNS
[6] = system: HCC-2998 colon
[7] = system: 786-0 renal
[8] = system: SF-268 CNS
[9] = system: HCT-15 colon
[10] = system: DU-145 prostate
[11] = system: HT29 colon
[12] = system: A549 NSCLC
[13] = system: MDA-MB-435
[14] = system: SK-MEL-28 melanoma
[15] = system: OVCAR-4 ovarian
[16] = system: LOX IMVI melanoma
[17] = system: OVCAR-5 ovarian
[18] = system: COLO 205 colon
[19] = system: NCI-H460 lung
[20] = system: A498 renal
[21] = system: EKVX NSCLC
[22] = system: SN12C renal
[23] = system: TK-10 renal
[24] = system: SNB-75 CNS
[25] = system: RXF 393 renal
[26] = system: NCI-H226 lung
[27] = system: RPMI-8226 leukemia
[28] = system: SK-MEL-5 melanoma
[29] = system: SK-MEL-2 melanoma
[30] = system: MALME-3M melanoma
[31] = system: U251 CNS
[32] = system: SF-295 CNS
[33] = system: SW-620 colon
[34] = system: HOP-62 NSCLC
[35] = system: SR leukemia
[36] = system: NCI/ADR-RES ovarian
[37] = system: SK-OV-3 ovarian
[38] = system: NCI-H522 lung
[39] = system: HL-60(TB) leukemia
[40] = system: IGROV1 ovarian
[41] = system: PC-3 prostate
[42] = system: MOLT-4 leukemia
[43] = system: MDA-MB-231 breast
[44] = system: SF-539 CNS
[45] = system: UACC-257 melanoma
[46] = system: KM12 colon
[47] = system: OVCAR-3 ovarian
[48] = system: HS 578T breast
[49] = system: CAKI-1 renal
[50] = system: HCT-116 colon
[51] = system: K-562 leukemia
[52] = system: UO-31 renal
[53] = system: MCF7 breast
[54] = system: T-47D breast
[55] = system: CCRF-CEM leukemia
[56] = system: M14 melanoma
[57] = system: OVCAR-8 ovarian
[58] = system: NCI-H23 lung
[59] = system: BT-549 breast

For `Nc1nc2c([nH]1)c1[nH]c3ccccc3c1c1[nH]c3ccccc3c21`, the GI50 [1] was 2.02 µM and the TGI [1] was 4.9 µM.
`COc1ccc([C@H]2c3[nH]c4ccccc4c3C[C@H]3C(=O)N(CCCCCCC(=O)NO)CC(=O)N23)cc1` was tested, and the GI50 [1] was 1.43 µM and the TGI [1] was 18.5 µM.
`CC(=O)CCN1CC2CN=NC2(C#N)C1` (stereo not drawn) showed a GI50 [1] of over 100 µM and a TGI [1] of over 100 µM.
Compound `CCOC(=O)c1sc(N/N=C(\C)c2ccc3c(c2)Nc2ccccc2S3)nc1C` has a GI50 [2] of 6.06 µM, a TGI [2] of 20.6 µM and a GI50 [3] of 6.1 µM. The TGI [3] was 19.1 µM, the GI50 [4] was 4.9 µM and the TGI [4] was 19.9 µM. It also gave a GI50 [5] of 12.8 µM, a TGI [5] of 25.6 µM and a GI50 [6] of 3.71 µM. It also gave a TGI [6] of 12.8 µM, a GI50 [7] of 7.21 µM and a TGI [7] of 23.1 µM. For the same compound, the GI50 [8] was 13.1 µM, the TGI [8] was 40.4 µM and the GI50 [9] was 3.4 µM. It also gave a TGI [9] of 14.8 µM, a GI50 [10] of 8.82 µM and a TGI [10] of 29.1 µM. It also gave a GI50 [11] of 11.7 µM, a TGI [11] of over 100 µM and a GI50 [12] of 6.4 µM. The TGI [12] was 38.8 µM, the GI50 [13] was 10.7 µM and the TGI [13] was 33.6 µM. For the same compound, the GI50 [14] was 11.1 µM, the TGI [14] was 26.1 µM and the GI50 [15] was 10.7 µM. The TGI [15] was 53.7 µM, the GI50 [16] was 3.14 µM and the TGI [16] was 12.4 µM. For the same compound, the GI50 [17] was 11.6 µM, the TGI [17] was 67.6 µM and the GI50 [18] was 9.42 µM. The TGI [18] was 32.2 µM, the GI50 [19] was 5 µM and the TGI [19] was 24.2 µM. For the same compound, the GI50 [20] was 16.1 µM, the TGI [20] was 45.5 µM and the GI50 [21] was 5.82 µM. For the same compound, the TGI [21] was 22.8 µM, the GI50 [22] was 11.5 µM and the TGI [22] was 28.3 µM. For the same compound, the GI50 [23] was 16.6 µM, the TGI [23] was 33.5 µM and the GI50 [24] was 8.97 µM. For the same compound, the TGI [24] was 31.2 µM, the GI50 [25] was 3.2 µM and the TGI [25] was 13.3 µM. The GI50 [26] was 10.9 µM, the TGI [26] was 29.3 µM and the GI50 [27] was 3.96 µM. The TGI [27] was over 100 µM, the GI50 [28] was 7.62 µM and the TGI [28] was 27.2 µM. For the same compound, the GI50 [29] was 15.4 µM, the TGI [29] was 44.8 µM and the GI50 [30] was 13.7 µM. It also gave a TGI [30] of 33.6 µM, a GI50 [31] of 14.1 µM and a TGI [31] of 54 µM. For the same compound, the GI50 [32] was 3.38 µM, the TGI [32] was 14.1 µM and the GI50 [33] was 11.9 µM. The TGI [33] was 45.2 µM, the GI50 [34] was 13.3 µM and the TGI [34] was 29.6 µM. For the same compound, the GI50 [35] was over 100 µM, the TGI [35] was over 100 µM and the GI50 [36] was 8.87 µM. It also gave a TGI [36] of 22.2 µM, a GI50 [37] of 16.9 µM and a TGI [37] of 39.7 µM. It also gave a GI50 [38] of 10.7 µM, a TGI [38] of 34.8 µM and a GI50 [39] of 4.89 µM. For the same compound, the TGI [39] was over 100 µM, the GI50 [1] was 3.45 µM and the TGI [1] was 15.1 µM. It also gave a GI50 [40] of 11.3 µM, a TGI [40] of 26 µM and a GI50 [41] of 6.04 µM. It also gave a TGI [41] of 24 µM, a GI50 [42] of 6.33 µM and a TGI [42] of over 100 µM. For the same compound, the GI50 [43] was 5.73 µM, the TGI [43] was 19.1 µM and the GI50 [44] was 10.1 µM. It also gave a TGI [44] of 21.7 µM, a GI50 [45] of 12.4 µM and a TGI [45] of 40.4 µM. For the same compound, the GI50 [46] was 3.45 µM, the TGI [46] was 19.4 µM and the GI50 [47] was 12.8 µM. For the same compound, the TGI [47] was 27.3 µM, the GI50 [48] was 10.5 µM and the TGI [48] was 50.6 µM. The GI50 [49] was 9.09 µM, the TGI [49] was 22.8 µM and the GI50 [50] was 6.64 µM. The TGI [50] was over 100 µM, the GI50 [51] was 4.03 µM and the TGI [51] was over 100 µM. It also gave a GI50 [52] of 6.67 µM, a TGI [52] of 20.7 µM and a GI50 [53] of 3.36 µM. The TGI [53] was 17.5 µM, the GI50 [54] was 3.94 µM and the TGI [54] was 49.2 µM. The GI50 [55] was 6.52 µM, the TGI [55] was 94.4 µM and the GI50 [56] was 8.42 µM. For the same compound, the TGI [56] was 61.8 µM, the GI50 [57] was 12 µM and the TGI [57] was 39.6 µM. For the same compound, the GI50 [58] was 8.65 µM, the TGI [58] was 21.3 µM and the GI50 [59] was 18.4 µM. It also gave a TGI [59] of 49.3 µM.
Work on `O=C(/C=C/c1ccccn1)c1ccccc1` yielded a GI50 [1] of 1.8 µM and a TGI [1] of 3.84 µM.
For `CN1CCC(C(=O)Nc2n[nH]c3nnc(-c4ccccc4)cc23)CC1`, the GI50 [1] was over 18.1 µM and the TGI [1] was over 25 µM.
`O=[N+]([O-])/C(=C/C=C/c1ccccc1)c1ccccc1` gave a GI50 [1] of 1.25 µM and a TGI [1] of 3.09 µM.
Compound `COc1cc2c(cc1OC)C(Sc1ccc(Cl)cc1)c1c(nc(N)c(C#N)c1N)O2` (stereo not drawn) has a GI50 [1] of 0.794 µM and a TGI [1] of 2.7 µM.
`OCCN1CCCN(CCCN2c3ccccc3Sc3ccc(C(F)(F)F)cc32)CC1` showed a GI50 [1] of 1.61 µM and a TGI [1] of 3.57 µM.
Work on `COc1ccc(-c2nc3sccn3c2/C=C/C(=O)c2cc(OC)c(OC)c(OC)c2)cc1` yielded a GI50 [1] of 2.44 µM and a TGI [1] of 12.4 µM.
Compound `CNc1ccc(CSc2ccc(C)cc2)cc1` has a GI50 [1] of 2.75 µM and a TGI [1] of 9.9 µM.
In the case of `CN(C)CC(=O)N1CCc2c([nH]c3ccccc23)C1c1cccnc1` (stereo not drawn), the GI50 [1] was 3.86 µM and the TGI [1] was 52.9 µM.
`COc1cc(C(=O)/C=C/c2c(C)n([O-])c3ccc(Cl)cc3[n+]2=O)cc(OC)c1OC` was tested, and the GI50 [1] was 3.52 µM and the TGI [1] was 19.3 µM.
Work on `COc1ccc(-c2nn(-c3cccc(Cl)c3)cc2-c2c(C#N)c(=O)n3[nH]c(-c4ccc(C)o4)nc3c2C#N)cc1` yielded a GI50 [1] of 1.34 µM and a TGI [1] of 4.93 µM.
In the case of `C=C(c1ccc(C(=O)NCCCn2ccnc2)cc1)c1cc2c(cc1C)C(C)(C)CCC2(C)C`, the GI50 [1] was 1.04 µM and the TGI [1] was 3.24 µM.
`Cc1nc2sc(C(=O)Nc3cccc(Cl)c3)c(N)c2cc1C(O)c1ccccc1` (stereo not drawn) gave a GI50 [1] of 0.486 µM and a TGI [1] of 20.1 µM.
`CC(C)(C)OC(=O)CC(S(=O)(=O)c1ccccc1)S(=O)(=O)c1ccccc1` showed a GI50 [1] of 1.71 µM and a TGI [1] of 3.2 µM.
`CC(C)(C)c1cnc(CSc2cnc(NC(=O)C3CCNCC3)s2)o1` was tested, and the GI50 [1] was 0.097 µM and 0.0794 µM and the TGI [1] was 0.344 µM and 0.306 µM.
`COc1ccc(C2CC(c3cccc(Nc4ccncc4)c3)=NN2c2ccccc2)cc1` (stereo not drawn) gave a GI50 [1] of 1.42 µM and a TGI [1] of 2.82 µM.
`Cc1ncc([N+](=O)[O-])n1CCOc1ccc(C(=O)/C=C/c2ccc(C(F)(F)F)cc2)cc1` showed a GI50 [1] of 3.92 µM and a TGI [1] of 21.8 µM.
In the case of `C#CCN(CCCOc1ccc(Cl)cc1Cl)CCCSC(=O)CCCCCN1/C(=C\C=C2/CCCC(/C=C/C3=[N+](CCCCCC(=O)[O-])c4ccccc4C3(C)C)=C2Cl)C(C)(C)c2ccccc21`, the GI50 [1] was 1.35 µM and the TGI [1] was 3.67 µM.
`COc1cc(-c2ccc[nH]2)[nH]c1/C=C1\N=C(C)C(C(=O)NC(C)C)=C1C` was tested, and the GI50 [1] was 2.91 µM and the TGI [1] was 16.8 µM.
In the case of `COc1cc(/C=C/C(=O)/C=C/c2ccc(-n3ccnc3)cc2)ccc1O`, the GI50 [1] was 2.2 µM and the TGI [1] was 5.36 µM.
Work on `Clc1cc(Cl)cc(Nc2ccc3c(OCCCN4CCOCC4)cccc3n2)c1` yielded a GI50 [1] of 2.08 µM and a TGI [1] of 4.33 µM.
Compound `COc1cc(C(=O)Nc2ccc(-c3nc4ccccc4[nH]3)cc2)cc(OC)c1OC` has a GI50 [1] of 11.9 µM and a TGI [1] of 28.4 µM.
Compound `O=C(Nc1ccc(-n2cc(-c3ccncc3)c(-c3ccc(Cl)c(O)c3)n2)cc1)c1ccc(Cl)c(Cl)c1` has a GI50 [1] of 4.43 µM and a TGI [1] of over 100 µM.
`CN(Cc1cnc2nc(N)nc(N)c2n1)c1c(Cl)cc(C(=O)NC(CCC(=O)O)C(=O)O)cc1Br` (stereo not drawn) showed a GI50 [1] of under 0.0118 µM and a TGI [1] of over 100 µM.
For `COc1ccccc1CNCCCN1C(=O)c2ccc3c4c(ccc(c24)C1=O)C(=O)N(CCCNCCCCN)C3=O`, the GI50 [1] was 0.0907 µM and the TGI [1] was 0.231 µM.
In the case of `Cn1cc(C2=C(c3cccc([N+](=O)[O-])c3)C(=O)NC2=O)c2ccccc21`, the GI50 [1] was 5.85 µM and the TGI [1] was over 25 µM.
`CCCCCCC1CCCCN1C(c1ccccc1)C(O)c1ccccc1` (stereo not drawn) showed a GI50 [1] of 3.81 µM and a TGI [1] of 14.4 µM.
For `CCOC(=O)c1c(-c2ccc(Cl)cc2)c(C#N)c(=S)n(C2OC(COC(C)=O)C(OC(C)=O)C(OC(C)=O)C2OC(C)=O)c1C` (stereo not drawn), the GI50 [1] was over 100 µM and the TGI [1] was over 100 µM.
